Like-named read-outs stand apart in the source and are kept apart here.
How the values were obtained:
[1] = molecular target: T1, Keap1 Kelch domain (321-609) / TAMRA-labeled 16mer NRF2 peptide (ETGE motif) (Homo sapiens, UniProt Q14145); experiment: NRF2-Keap1 FP Assay (Keap1 Kelch fluorescence polarization); assay type: binding; conditions: 20 nM Keap1 (321-609), 8 nM Tamra labeled peptide
T1 construct: the Kelch domain (321-609) of Keap1 is used
In short: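 Compound dilutions (3-fold) were incubated 1 hr at room temperature with 20 nM Keap1 Kelch (321-609) and 8 nM TAMRA-labeled ETGE 16mer peptide. Buffer was 50 mM Tris pH 8.0, 100 mM NaCl, 5 mM MgCl2, 1 mM DTT, 2 mM CHAPS, 0.005% BSA. Fluorescence polarization (mP) was normalized to controls and fitted with a four-parameter equation to give pIC50.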

[2] = molecular target: T2, full length Keap1 protein / full length NRF2 protein (Homo sapiens, UniProt Q14145); experiment: NRF2-Keap1 TR-FRET Assay; assay type: binding; conditions: 25 nM Keap1-FlagHis and 50 nM biotin-NRF2 added
T2 construct: full length NRF2 protein and full length Keap1 protein (Keap1 exists a dimer) are used; His
T2 sequence (Q14145 whole entry): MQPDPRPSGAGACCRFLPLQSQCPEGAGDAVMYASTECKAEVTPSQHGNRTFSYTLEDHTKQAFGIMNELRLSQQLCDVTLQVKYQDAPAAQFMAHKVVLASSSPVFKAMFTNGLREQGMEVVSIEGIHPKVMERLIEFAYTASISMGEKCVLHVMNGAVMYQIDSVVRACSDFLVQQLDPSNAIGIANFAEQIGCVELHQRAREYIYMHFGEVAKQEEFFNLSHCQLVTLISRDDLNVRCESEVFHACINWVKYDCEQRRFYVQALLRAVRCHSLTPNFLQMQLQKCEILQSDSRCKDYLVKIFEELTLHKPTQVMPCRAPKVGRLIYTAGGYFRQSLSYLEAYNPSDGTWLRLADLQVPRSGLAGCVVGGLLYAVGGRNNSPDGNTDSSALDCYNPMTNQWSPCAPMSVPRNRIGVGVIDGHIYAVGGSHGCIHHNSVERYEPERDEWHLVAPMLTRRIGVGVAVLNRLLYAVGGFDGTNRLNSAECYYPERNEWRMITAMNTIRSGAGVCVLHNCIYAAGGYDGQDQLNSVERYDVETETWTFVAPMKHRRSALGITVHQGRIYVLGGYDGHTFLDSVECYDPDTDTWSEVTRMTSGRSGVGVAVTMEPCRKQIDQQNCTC
Excerpt: In the NRF2-Keap1 TR-FRET (time-resolved fluorescence resonance energy transfer) assay, full length NRF2 protein and full length Keap1 protein (Keap1 exists a dimer) are used. The assay detects the ability of compound to displace the binding of FlagHis-tagged Keap1 with biotinylated, Avi-tagged NRF2 protein. Biotin-NRF2 binds to streptavidin-europium (a component of the detection mix) and Keap1-FlagHis is recognized by anti-Flag APC (allophycocyanin) antibody (also a component of the detection mix). If binding occurs between the two proteins, there will be an energy transfer from the Eu+3 (donor) at 615 nm to the APC (acceptor) at 665 nm. A potential Keap1 inhibitor will cause a reduction in the TR-FRET signal by interfering with the binding of Keap1 to NRF2.
One hundred nanoliters of 100× compound dose response curves (serial 3-fold dilutions) in DMSO are stamped using an Echo liquid handling system (Labcyte) into 384-well, low volume, black assay plates (Greiner, #784076), with DMSO in columns 6 and 18. The top concentration of compound is located in columns 1 and 13. All reagents are diluted in assay buffer (50 mM Tris, pH 8.0, 5 mM MgCl2, 100 mM NaCl, 0.005% BSA, 1 mM DTT, and 2 mM CHAPS). The BSA, DTT, and CHAPS are added to the assay buffer on the day of assay. Using a Multidrop Combi (Thermo Electron Corporation) equipped with a metal tip dispenser, 5 ul of 25 nM Keap1-FlagHis protein is added to all wells of the compound plate, with the exception of the wells in column 18. Wells in column 18 receive 5 ul of assay buffer instead. Plates are centrifuged at 500 rpm for 1 minute, covered with a plate lid, and incubated at 37° C. for 2.25 hours. Plates are then removed from the incubator and allowed to cool to RT for 15 minutes. Five microliters of 50 nM biotin-NRF2 protein is then added to all wells of the plates and the plates are spun at 500 rpm for 1 minute, followed by incubating at 4° C. for 1.25 hours. The plates are then allowed to warm to RT for 15 minutes, followed by the addition of 10 ul of detection mix (1 nM Streptavidin Eu+ W1024 and 5 ug/ml mouse anti-DYKDDDDK IgG conjugated to SureLight APC antibody; both from Columbia Biosciences) to all wells. Plates are spun at 500 rpm for 1 minute, incubated for 1 hour at RT, and read on an Envision plate reader using a 320 nm excitation filter and 615 nm and 665 nm emission filters. Compound response (% inhibition) and potency (pIC50) are calculated based on the ratio of the two emissions (665 nm/615 nm) and then the transformed data is normalized against controls in the assay (control 1=1% DMSO in the presence of NRF2 and Keap1 protein and control 2=1% DMSO in the absence of protein). Data analysis is handled using the software package Abase XE (Surrey, United Kingdom). The % inhibition values are calculated from the ratio (transformed) data by the equation: 100−(100*(compound response−average control 2)/(average control 1−average control2)). For calculation of pIC50s, Abase XE uses a four parameter equation. pIC50 is the negative log of the IC50.

[3] = tested on: NQO1 specific enzyme activity in BEAS-2B cells (marker for NRF2 activation); experiment: BEAS-2B NQO1 MTT Assay; assay type: cell-based; conditions: Homo sapiens, compound incubated 48 hours, read-out: EC50 (NQO1 specific enzyme activity induction)
In short: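 NQO1 specific activity induction is derived from the rate of MTT reduction (ΔOD/min, 570 nm, 30 min kinetic read) in crude lysates of BEAS-2B cells exposed to compound for 48 h. A 3-parameter fit gives EC50, reported as pEC50; part of each lysate goes to Cell Titer Glo.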

T1 sequence (Q14145 321-609): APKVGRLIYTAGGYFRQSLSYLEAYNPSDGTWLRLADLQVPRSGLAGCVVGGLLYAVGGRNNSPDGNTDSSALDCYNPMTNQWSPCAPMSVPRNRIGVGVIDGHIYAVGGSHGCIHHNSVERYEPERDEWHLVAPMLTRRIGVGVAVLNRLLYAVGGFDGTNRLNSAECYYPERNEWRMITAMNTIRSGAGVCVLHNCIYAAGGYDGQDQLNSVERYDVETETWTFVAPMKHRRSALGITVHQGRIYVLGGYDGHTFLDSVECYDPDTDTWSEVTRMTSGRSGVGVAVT

| SMILES | IC50 [1] [nM] | IC50 [2] [nM] | EC50 ([3]; BEAS-2B, 48 h) [nM] | EC50 [3] [nM] |
| --- | --- | --- | --- | --- |
| CCC[C@@H]1CCCCN1C(=O)c1cccc(-c2cc(C)cc(-n3ncc(C(=O)O)c3[C@H]3C[C@@H]3c3cn(C)nn3)c2)c1 (single isomer, unassigned) [Example 156] | 100 to 1000 | 100 to 1000 | 100 to 1000 |  |
| CN(C)C(=O)c1cccc(-c2cccc(-n3ncc(C(=O)O)c3C3CCCC3)c2)c1F [Example 1, 5-Cyclopentyl-1-{3-[3-(dimethylcarbamoyl)-2-fluorophenyl]phenyl}-1H-pyrazole-4-carboxylic Acid] | 100 to 1000 | 10000 to 100000 |  | 1000 to 10000 |
| CN(C)C(=O)c1cccc(-c2cccc(-n3ncc(C(=O)O)c3C(F)(F)F)c2)c1F [Example 2, 1-{3-[3-(Dimethylcarbamoyl)-2-fluorophenyl]phenyl}-5-(trifluoromethyl)-1H-pyrazole-4-carboxylic Acid] | 100 to 1000 | 1000 to 10000 |  | 1000 to 10000 |
| CN(C(=O)c1cccc(-c2cccc(-n3ncc(C(=O)O)c3C3CC3)c2)c1F)C1CCCC1 [Example 3, 1-(3-{3-[Cyclopentyl(methyl)carbamoyl]-2-fluorophenyl}phenyl)-5-cyclopropyl-1H-pyrazole-4-carboxylic Acid] | 100 to 1000 | 1000 to 10000 |  | 1000 to 10000 |
| CC(C)CN(C)C(=O)c1cccc(-c2cccc(-n3ncc(C(=O)O)c3C3CC3)c2)c1F [Example 4, 5-Cyclopropyl-1-(3-{2-fluoro-3-[methyl(2-methylpropyl)carbamoyl]phenyl}phenyl)-1H-pyrazole-4-carboxylic Acid] | 100 to 1000 | 1000 to 10000 |  | 1000 to 10000 |
| CN(C(=O)c1cccc(-c2cccc(-n3ncc(C(=O)O)c3C3CC3)c2)c1F)C1CCCCC1 [Example 5, 1-(3-{3-[Cyclohexyl(methyl)carbamoyl]-2-fluorophenyl}phenyl)-5-cyclopropyl-1H-pyrazole-4-carboxylic Acid] | 100 to 1000 | 1000 to 10000 |  | 1000 to 10000 |
| CC1(C)CCCN(C(=O)c2cccc(-c3cccc(-n4ncc(C(=O)O)c4C4CC4)c3)c2F)C1 [Example 6, 5-Cyclopropyl-1-{3-[3-(3,3-dimethylpiperidine-1-carbonyl)-2-fluorophenyl]phenyl}-1H-pyrazole-4-carboxylic Acid] | 10 to 100 | 100 to 1000 |  | 1000 to 10000 |
| O=C(O)c1cnn(-c2cccc(-c3cccc(C(=O)N4CCCCCC4)c3F)c2)c1C1CC1 [Example 7, 1-{3-[3-(azepane-1-carbonyl)-2-fluorophenyl]phenyl}-5-cyclopropyl-1H-pyrazole-4-carboxylic Acid] | 10 to 100 | 1000 to 10000 |  | 1000 to 10000 |
| CCCN(CC1CC1)C(=O)c1cccc(-c2cccc(-n3ncc(C(=O)O)c3C3CC3)c2)c1F [Example 9, 5-Cyclopropyl-1-(3-{3-[(cyclopropylmethyl)(propyl)carbamoyl]-2-fluorophenyl}phenyl)-1H-pyrazole-4-carboxylic Acid] | 10 to 100 | 1000 to 10000 |  | 1000 to 10000 |
| O=C(O)c1cnn(-c2cccc(-c3cccc(C(=O)N4CCCCCC4)c3)c2)c1C1CC1 [Example 10, 1-{3-[3-(Azepane-1-carbonyl)phenyl]phenyl}-5-cyclopropyl-1H-pyrazole-4-carboxylic Acid] | 100 to 1000 | 1000 to 10000 |  | 1000 to 10000 |
| CC(C)Oc1cccc(-c2cccc(-n3ncc(C(=O)O)c3C(F)(F)F)c2)c1 [Example 11, 1-{3-[3-(propan-2-yloxy)phenyl]phenyl}-5-(trifluoromethyl)-1H-pyrazole-4-carboxylic Acid] | 1000 to 10000 | 10000 to 100000 |  | 1000 to 10000 |
| CN(CC1CCCC1)C(=O)c1cccc(-c2cccc(-n3ncc(C(=O)O)c3C3CC3)c2)c1F [Example 12, 1-(3-{3-[(Cyclopentylmethyl)(methyl)carbamoyl]-2-fluorophenyl}phenyl)-5-cyclopropyl-1H-pyrazole-4-carboxylic Acid] | 10 to 100 | 100 to 1000 |  | 1000 to 10000 |
| CCCN(CC1CC1)C(=O)c1cccc(-c2cccc(-n3ncc(C(=O)O)c3C3CC3)c2)c1Cl [Example 15, 1-(3-{2-Chloro-3-[(cyclopropylmethyl)(propyl)carbamoyl]phenyl}phenyl)-5-cyclopropyl-1H-pyrazole-4-carboxylic Acid] | 100 to 1000 | 1000 to 10000 |  | 1000 to 10000 |
| CCCN(CC1CC1)C(=O)c1cccc(-c2cccc(-n3ncc(C(=O)O)c3C3CC3)c2)c1C [Example 16, 5-Cyclopropyl-1-(3-{3-[(cyclopropylmethyl)(propyl)carbamoyl]-2-methylphenyl}phenyl)-1H-pyrazole-4-carboxylic Acid] | 100 to 1000 | 1000 to 10000 |  | 1000 to 10000 |
| O=C(O)c1cnn(-c2cccc(-c3cccc(C(=O)N4CCCC(C(F)(F)F)C4)c3F)c2)c1C1CC1 (stereo not drawn) [Example 18, 5-Cyclopropyl-1-(3-{2-fluoro-3-[3-(trifluoromethyl)piperidine-1-carbonyl]phenyl}phenyl)-1H-pyrazole-4-carboxylic Acid] | 100 to 1000 | 1000 to 10000 |  | 1000 to 10000 |
| O=C(O)c1cnn(-c2cccc(-c3cccc(C(=O)N4CCCCC45CC5)c3F)c2)c1C1CC1 [Example 19, 1-[3-(3-{4-Azaspiro[2.5]octane-4-carbonyl}-2-fluorophenyl)phenyl]-5-cyclopropyl-1H-pyrazole-4-carboxylic Acid] | 100 to 1000 | 1000 to 10000 |  | 1000 to 10000 |
| O=C(O)c1cnn(-c2cccc(-c3cccc(C(=O)N4CCCCC4)c3F)c2)c1C1CC1 [Example 20, 5-Cyclopropyl-1-{3-[2-fluoro-3-(piperidine-1-carbonyl)phenyl]phenyl}-1H-pyrazole-4-carboxylic Acid] | 100 to 1000 | 1000 to 10000 |  | 1000 to 10000 |
| COCC1CCCCN1C(=O)c1cccc(-c2cccc(-n3ncc(C(=O)O)c3C3CC3)c2)c1F (stereo not drawn) [Example 22, 5-Cyclopropyl-1-(3-{2-fluoro-3-[2-(methoxymethyl)piperidine-1-carbonyl]phenyl}phenyl)-1H-pyrazole-4-carboxylic Acid] | 10 to 100 | 1000 to 10000 |  | 1000 to 10000 |
| O=C(O)c1cnn(-c2cccc(-c3cccc(C(=O)N(CCC(F)(F)F)CC4CC4)c3F)c2)c1C1CC1 [Example 23, 5-Cyclopropyl-1-(3-{3-[(cyclopropylmethyl)(3,3,3-trifluoropropyl)carbamoyl]-2-fluorophenyl}phenyl)-1H-pyrazole-4-carboxylic Acid] | 100 to 1000 | 1000 to 10000 |  | 1000 to 10000 |
| CC1CCC(C)N1C(=O)c1cccc(-c2cccc(-n3ncc(C(=O)O)c3C3CC3)c2)c1F (stereo not drawn) [Example 24, 5-Cyclopropyl-1-{3-[3-(2,5-dimethylpyrrolidine-1-carbonyl)-2-fluorophenyl]phenyl}-1H-pyrazole-4-carboxylic Acid] | 100 to 1000 | 1000 to 10000 |  | 1000 to 10000 |

— patent US10364256B2 (GlaxoSmithKline Intellectual Property Development Limited, priority 2015, dated 2019)
